Assay results as given in patent US20220370467A1, “USING OF A PPAR-DELTA AGONIST IN THE TREATMENT OF KIDNEY DISEASE” (Reneo Pharmaceuticals, Inc., priority 2019, published 2022).

Legend:
LXRα = biological target: T1, LXRα (Homo sapiens, UniProt Q13133); test: activity on nuclear receptor LXRα
T1 sequence (Q13133 1-447): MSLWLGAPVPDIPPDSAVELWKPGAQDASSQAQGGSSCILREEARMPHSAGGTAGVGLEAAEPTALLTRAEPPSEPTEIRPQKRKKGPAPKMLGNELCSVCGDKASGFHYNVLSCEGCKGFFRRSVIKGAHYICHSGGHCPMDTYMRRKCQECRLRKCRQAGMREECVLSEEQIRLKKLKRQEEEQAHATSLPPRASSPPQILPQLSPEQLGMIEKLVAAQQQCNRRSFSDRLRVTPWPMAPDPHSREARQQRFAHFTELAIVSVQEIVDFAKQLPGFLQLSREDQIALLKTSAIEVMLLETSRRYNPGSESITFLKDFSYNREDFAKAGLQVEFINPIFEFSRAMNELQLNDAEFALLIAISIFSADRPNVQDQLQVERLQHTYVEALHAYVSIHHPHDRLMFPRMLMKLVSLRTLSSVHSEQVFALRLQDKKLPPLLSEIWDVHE

hPPARα = biological target: T2, hPPARα (Homo sapiens, UniProt Q07869); test: in vitro assay on human PPAR subtypes (transactivation): hPPARα; format: cell-based
T2 construct: expressed in transfected cells; host or cells: HEK293
T2 sequence (Q07869 239-466 limits assumed): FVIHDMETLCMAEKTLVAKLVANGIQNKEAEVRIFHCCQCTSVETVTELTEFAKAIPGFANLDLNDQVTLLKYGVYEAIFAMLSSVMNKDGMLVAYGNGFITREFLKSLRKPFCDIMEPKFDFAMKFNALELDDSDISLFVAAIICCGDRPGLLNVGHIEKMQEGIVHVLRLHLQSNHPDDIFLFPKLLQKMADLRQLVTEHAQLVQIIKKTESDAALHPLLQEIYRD
Source text: (§1) “Activation” here is defined as the abovementioned downstream response, which in the case of PPAR's is gene transcription. Gene transcription may be measured indirectly as downstream production of proteins reflective of the activation of the particular PPAR subtype under study. Alternatively, an artificial reporter construct may be employed to study the activation of the individual PPAR's expressed in cells. The ligand binding domain of the particular receptor to be studied may be fused to the DNA binding domain of a transcription factor, which produces convenient laboratory readouts, such as the yeast GAL4 transcription factor DNA binding domain. The fusion protein may be transfected into a laboratory cell line along with a Gal4 enhancer, which effects the expression of the luciferase protein. When such a system is transfected into a laboratory cell line, binding of a receptor agonist to the fusion protein will result in light emission.
(§2) The PPAR transient transactivation assay may be based on transient transfection into human HEK293 cells of two plasmids encoding a chimeric test protein and a reporter protein respectively. […] The amount of luciferase protein is measured by light emission after addition of the appropriate substrate. […]

hPPARγ = biological target: T3, hPPARγ (Homo sapiens, UniProt P37231); test: in vitro assay on human PPAR subtypes (transactivation): hPPARγ; format: cell-based
T3 construct: expressed in transfected cells; host or cells: HEK293
T3 sequence (P37231 238-503 limits assumed): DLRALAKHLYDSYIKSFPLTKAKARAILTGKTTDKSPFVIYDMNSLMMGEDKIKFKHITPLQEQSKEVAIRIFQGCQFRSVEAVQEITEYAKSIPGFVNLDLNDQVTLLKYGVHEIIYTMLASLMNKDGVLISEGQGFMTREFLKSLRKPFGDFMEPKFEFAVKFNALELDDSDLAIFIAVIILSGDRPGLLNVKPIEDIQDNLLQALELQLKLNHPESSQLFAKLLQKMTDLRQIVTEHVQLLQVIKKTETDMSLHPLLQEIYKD
Source text: as §1, §2

2K1C rat clipped kidney = conditions: cited from earlier work

activity on LXRα (LXRα): did not show any
agonist type on PPARα (hPPARα): partial agonist
activity on PPARα in transactivation assays (hPPARα; in some cases): negligible activity
agonist type on PPARγ (hPPARγ): partial agonist
activity on PPARγ in transactivation assays (hPPARγ; in some cases): negligible activity
Structure (SMILES): Cc1cc(OC/C=C(/c2ccc(F)cc2)c2ccc(C#CCN3CCOCC3)cc2)ccc1OCC(=O)O [Compound 1, (E)-[4-[3-(4-Fluorophenyl)-3-[4-[3-(morpholin-4-yl)propynyl]phenyl]allyloxy]-2-methyl-phenoxy]acetic acid]
levels of MCAD, COXIV, TFAM and Parkin proteins and AMPK activation (2K1C rat clipped kidney; 2K1C rat kidneys): remained at the physiological levels
mitochondrial biogenesis and autophagy (PGC1-a, LC3-II, ATG5) (2K1C rat clipped kidney; 2K1C rat kidneys): inhibited similarly in both treated and untreated
BNIP3 protein in the mitochondrial fraction (2K1C rat clipped kidney; 2K1C rat, compared to untreated animals): decreased notably
nuclear amounts of oxidative stress-responsive proteins NRF1 and NRF2 (2K1C rat clipped kidney; 2K1C rat, treated kidneys): below physiological levels
histochemical features of necrosis in clipped kidney (2K1C rat clipped kidney; 2K1C rat, treated vs untreated clipped kidneys): did not exhibit any histochemical features of necrosis
fibrotic lesions in clipped kidney (2K1C rat clipped kidney; 2K1C rat): present only in perivascular areas
oxidative stress in kidneys (2K1C rat clipped kidney; 2K1C rat): attenuated
